# Experimental data: US20120172306A1, “Use of HASF as a Protective Agent Against Ischemic Tissue Damage” (Duke University, priority 2009, published 2012)
# Assays:
# [1] = tested on: PKC, Raf, ERK 1/2, PDK1 phosphorylation in adult rat cardiomyocytes; test: Western blot analysis of signaling protein phosphorylation (PKC/ERK pathway); format: cell-based; details: 3 μM inhibitor 30 min, then 100 nM HASF 5-10 min
# Procedure: FIG. 3A is a photograph of an electrophoretic gel. HASF activates the PKC pathway. A. Western blots analysis for various signaling proteins. Serum-starved adult rat cardiomyocytes were stimulated with 100 nM HASF recombinant protein for various time courses. Cell lysate was collected and the proteins were resolved by SDS-PAGE. Insulin from bovine pancreas was used as a positive control. min: minutes of treatment.
# FIG. 3B is a photograph of an immunoblot. Serum-starved adult rat cardiomyocytes were pre-treated with 3 μM PKC inhibitors BIM, Gö6976, or Gö6983 for 30 minutes, then stimulated with 100 nM HASF recombinant protein for 5-10 min and cells were harvested. Total cell lysates were used to analyze the levels of ERK1/2 phosphorylation by western blot analysis.
# FIG. 4A is a photograph of an immunoblot. Western blot analysis for PKC E and PKC delta phosphorylation on total cell lysates from serum-starved adult rat cardiomyocytes stimulated with 100 nM HASF recombinant protein at 5 and 30 min. HASF b1 and b2 represent different batches of recombinant protein. PMA was used as positive control.
# FIG. 4B is a photograph of an immunoblot. Western blot analysis for ERK1/2 phosphorylation on total cell lysates from adult rat cardiomyocytes pre-treated with 10 pM PKC epsilon translocation inhibitor peptide for 20 min, then 100 nM HASF recombinant protein was added for 5 min or 10 min.
# FIGS. 8A-B are photographs of immunoblots. Western blot analysis for PKC a/b and PKC theta phosphorylation on total cell lysates from serum-starved adult rat cardiomyocytes stimulated with 100 nM HASF recombinant protein for the indicated times. HASF batch 1 and 2 represent different batches of recombinant protein. PMA was used as positive control.
# Rabbit polyclonal antibodies for phospho-pan PKC, phospho-ERK1/2, phospho-raf, phosphor-PDK1, total Akt were obtained from Cell Signaling Tech. Rabbit polyclonal antibody for phospho-PKC epsilon, phospho-Bad, and GAPDH was obtained from Abeam. HRP-conjugated goat anti-rabbit secondary antibody was obtained from Cell Signaling Tech.
# adult rat cardiomyocytes = test: Caspase-Glo 9 and 3/7 assays of H2O2 induced apoptosis; format: cell-based; details: 3 μM inhibitor 30 min, 100 nM HASF 30 min, 200 μM H2O2 3 hours
# Procedure: FIGS. 2B and 2C are bar graphs showing relative caspase activity. Adult rat cardiomyocytes were freshly isolated and treated ±10 nM of HASF for 30 min, and then challenged with 100 μM of H2O2 for various time points. H2O2 induced apoptosis in cardiomyocytes was evidenced by the dynamic increase in the activities of the initiator Caspase 9 and effector Caspase […] at 5 h, 7 h and 9 h respectively. Y axis represent the relative amount of luminescence indicating the relative amount of active Caspase activities. ** P<0.01 and *** P<0.001. Data are presented as means±standard deviation of triplicates.
# FIG. 3C is a bar graph showing fold-change in caspase activity. Serum-starved adult rat cardiomyocytes were treated with 3 μM PKC inhibitors or vehicle DMSO for 30 minutes, then 100 nM HASF recombinant protein was added for 30 minutes followed by treatment with 200 μM H2O2 for 3 hours. Apoptosis was determined by detection of Caspase-9 activity using a homogeneous luminescent assay. All samples were measured in triplicates. *P<0.05 vs. non-HASF treated cells.
# FIG. 4C is a bar graph showing relative caspase activity in adult cardiomyocytes. Apoptosis as determined by detection of Caspase-9 activity on adult rat cardiomyocytes pre-treated with 178 μM PKC translocation inhibitor peptide for 10 minutes and then with 100 nM of HASF for 30 minutes. Thereafter, cells were challenged with 200 μM H2O2 for 3 hours. All samples were measured in triplicates. *P <0.05 vs. non-HASF treated cells and the experiment was repeated multiple times.
# Adult rat ventricular cardiomyocytes were isolated from 6 weeks old female Sprague-Dawley rat (Harlan World Headquarters, Indianapolis, Ill., USA) hearts by enzymatic digestion and were seeded in (6-well) plates or Delta T culture dishes (Bioptechs, Inc., Pa.) pre-coated with 1 μg/cm2 of laminin (Sigma) at 5×10^4/well and cultured overnight in serum-free M199 medium (Sigma), supplemented with 2 mM of L-carnitine, 5 mM of creatine, 5 mM of taurine, 0.2% of albumin, 100 U/ml of penicillin and 100 μg/ml of streptomycin. […]
structure (smiles),measurement,setting,value
"CN(C)CCCn1cc(C2=C(c3c[nH]c4ccccc34)C(=O)NC2=O)c2ccccc21.Cl [BIM, Bisindolylmalemide Hydrochloride, reference compound]",effect of PKC inhibitor on HASF-mediated ERK1/2 phosphorylation,[1],abolished
same,effect of PKC inhibitor on protective effects of HASF (Caspase-9 activity),adult rat cardiomyocytes,abolished the protective effects
